Test results taken from patent publication US20200069686A1, “N-SUBSTITUTED INDOLE DERIVATIVES” (Idorsia Pharmaceuticals Ltd, priority 2017, published 2020).

Legend:
Assay type in all cases: cell-based
[1] = biological target: T1, EP4 (Homo sapiens, UniProt P35408); test: hEP4 cAMP assay (BT549 breast cancer cells, HTRF cAMP); settings: PGE2 6 nM (EC80) as agonist, antagonistic activity
T1 construct: BT549 breast cancer cells, express high endogenous EP4 levels and very low EP2 levels; endogenous in cells; host or cells: BT549 breast cancer cells (NCI No. 0507282)
T1 sequence (P35408 whole entry): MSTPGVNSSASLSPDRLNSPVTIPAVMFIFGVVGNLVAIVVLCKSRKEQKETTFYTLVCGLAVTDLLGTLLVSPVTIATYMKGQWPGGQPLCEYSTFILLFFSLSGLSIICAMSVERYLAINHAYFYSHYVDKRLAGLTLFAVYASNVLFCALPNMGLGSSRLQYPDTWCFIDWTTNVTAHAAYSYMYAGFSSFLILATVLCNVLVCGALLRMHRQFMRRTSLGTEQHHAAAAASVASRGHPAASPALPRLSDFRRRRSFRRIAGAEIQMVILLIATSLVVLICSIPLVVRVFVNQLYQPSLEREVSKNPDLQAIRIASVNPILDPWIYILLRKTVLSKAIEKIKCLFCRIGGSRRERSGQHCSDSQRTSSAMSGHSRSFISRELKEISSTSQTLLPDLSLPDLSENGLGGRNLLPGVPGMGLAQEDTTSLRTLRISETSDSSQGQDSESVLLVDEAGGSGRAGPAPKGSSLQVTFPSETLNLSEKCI
Experimental: (§1) The antagonistic activities of the compounds of formula (I) on the EP2 and EP4 receptors are also determined in accordance with the following experimental method.
(§2) Human tumor cell lines expressing endogenously either EP4 or EP2 are used and cAMP accumulation in cells upon PGE2 stimulation is monitored. SF295 glioblastoma cells express high endogenous EP2 and no EP4,whereas BT549 breast cancer cells, express high endogenous EP4 levels and very low EP2 levels.
(§3) As a detection method for cAMP the HTRF (homogeneous time resolved fluorescence) Cisbio kit (HTRF cAMP dynamic 2 kit 20′000 tests Cisbio Cat. #62AM4PEC) was used, which is based on a competitive immunoassay using a Cryptate-labeled anti-cAMP antibody and d2-labeled cAMP. Native cAMP produced by cells or unlabeled cAMP (for the standard curve) compete with exogenously added d2-labeled cAMP (acceptor) for binding to monoclonal anti-cAMP-Eu3+ Cryptate (donor). A FRET signal (Fluorescence Resonance Energy Transfer) is obtained only if the labeled anti-cAMP antibody binds the d2 labelled cAMP, thus the specific signal (i.e. energy transfer) is inversely proportional to the concentration of cAMP in the standard or sample.
(§4) The BT549 cells (NCl/No. 0507282) are detached from culture dishes with a cell dissociation buffer (Invitrogen, 13151-014), and collected in growing medium (GM: RPM11640 (Invitrogen 21875)/10% FCS, 1% Penicilin/streptomycin). Cells are counted washed and resuspended in assay buffer (AB; HBSS, 20 mM HEPES, 0.2% BSA; 2 mM IBMX). 4′000 cells in 5 μL of AB are seeded per well of a small volume 384 well plate (black with flat bottom, Greiner 784076).
Stock solutions of test compounds are made at a concentration of 10 mM in DMSO, and serially diluted in DMSO to concentrations required for inhibition dose response curves (tested concentration range 30 μM-0.4 nM; 30 μM-0.015 nM or 1 μM-0.01 nM).
PGE2 (Cayman 14010, stock solution: 6 μM in DMSO) is used as agonist at 6 nM final concentration, corresponding to EC80.
(§5) 2.5 μL of diluted compounds are transferred into the assay plate. […] Five μL of each donor (anti-cAMP cryptate) and acceptor (cAMP-d2) are added and the plate is incubated another hour at room temperature in the dark and then read using a BMG LABTECH PHERAstar reader (Excitation: 337 nm, Emission: 620 and 665 nm).
(§6) The obtained Delta F (fluorescence) values (665 nm/620 nM) are converted into % cAMP values using the measurements of the cAMP calibrator provided in the kit. For each compound concentration the percentage of cAMP compared to DMSO control value as average ±STDEV (each concentration is measured in duplicate) is calculated.
(§7) IC50 values and curves are generated with XLfit software (IDBS) using Dose-Response One Site model 203. When compounds were measured multiple times, mean values are given.

[2] = biological target: T2, PTGER2 (EP2) (Homo sapiens, UniProt P43116); test: hEP2 b-arrestin assay (PathHunter HEK 293 PTGER2 b-arrestin cells); settings: PGE2 5 μM (EC80) as agonist, antagonistic activity, read-out: hEP2 beta-arrestin IC50
T2 construct: host or cells: HEK 293 (PathHunter PTGER2 b-arrestin cell line)
T2 sequence (P43116 whole entry): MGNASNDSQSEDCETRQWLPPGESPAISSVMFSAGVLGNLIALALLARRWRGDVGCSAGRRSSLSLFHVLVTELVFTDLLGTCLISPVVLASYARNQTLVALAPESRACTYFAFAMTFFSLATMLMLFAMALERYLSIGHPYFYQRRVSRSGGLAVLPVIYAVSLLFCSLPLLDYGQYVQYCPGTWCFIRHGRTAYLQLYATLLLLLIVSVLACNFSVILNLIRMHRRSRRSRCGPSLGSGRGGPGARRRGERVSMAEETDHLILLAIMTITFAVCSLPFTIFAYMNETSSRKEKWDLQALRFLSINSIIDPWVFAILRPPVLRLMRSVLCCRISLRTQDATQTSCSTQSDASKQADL
Experimental: (§8) The antagonistic activities of the compounds of formula (I) on the EP2 and EP4 receptors are determined in accordance with the following experimental methods.
(§9) The assay is using the PathHunter™ HEK 293 PTGER2 and PTGER4 b-arrestin cell lines from DiscoverX. The system is based on the Enzyme Fragment Complementation Technology. Two complementing fragments of the b-galactosidase enzyme are expressed within stably transfected cells. The larger portion of b-gal, termed EA for Enzyme Acceptor, is fused to the C-terminus of b-arrestin 2. The smaller fragment, termed ProLink™ tag, is fused to PTGER2 (EP2) or PTRGER4 (EP4) at the C-terminus. Upon activation, b-arrestin is recruited which forces the interaction of ProLink and EA, allowing complementation of the two fragments of b-gal and the formation of a functional enzyme which is capable of hydrolysing the substrate and generating a chemiluminescent signal.
(§10) The HEK 293 PTGER2 b-arrestin cells (DiscoverX 93-021-4C1) are detached from culture dishes with a cell dissociation buffer (Invitrogen, 13151-014), and collected in growing medium (GM: DMEM+Glutamax-I (Invitrogen 32430)/10% FCS, 1% Penicilin/streptomycin). 5000 cells per well of a 384 well plate (white with white bottom Greiner 781080) are seeded in 20 ul per well of GM. Plate is incubated at 37° C., 5% CO2 for 24 hours.
(§11) Stock solutions of test compounds are made at a concentration of 10 mM in DMSO, and serially diluted in DMSO to concentrations required for inhibition dose response curves (tested concentration range 10 μM-2 nM or 1 μM-0.2 nM).
PGE2 (Cayman 14010, stock solution: 10 mM in DMSO) is used as agonist at 5 μM final concentration, corresponding to EC80.
Five microliters of diluted compounds are transferred into the assay plate. Plate is pre-incubated 15 minutes at 37° C. Then five microliters of PGE2 (final conc. 5 μM) are transferred into the assay plate. Plate is incubated 120 minutes at 37° C.
(§12) PathHunter Glo Detection Kit components are thawed and mix according to manufacturers instructions: 1 part Galacton Star Substrate with 5 parts Emerald II™ Solution, and 19 parts of PathHunter Cell Assay Buffer, respectively. Twelve μL of reagent are transferred to the assay plate and incubate for 1 hour at room temperature in the dark. Luminescence counts are read on a BMG Fluostar Optima reader according to manufacturers instructions.
(§13) For each compound concentration calculate of the percentage of activity compared to DMSO control value as average ±STDEV. (each concentration is measured in duplicate)
as §7

[3] = biological target: T3, EP2 (Homo sapiens, UniProt P43116); test: hEP2 cAMP assay (SF295 glioblastoma cells, HTRF cAMP); settings: PGE2 75 nM (EC80) as agonist, antagonistic activity
T3 construct: SF295 glioblastoma cells express high endogenous EP2 and no EP4; endogenous in cells; host or cells: SF295 glioblastoma cells (NCI No. 0503170)
T3 sequence (P43116 whole entry): as above
Experimental: as §1, §2, §3
as §4, with “SF295” for “BT549”, “0503170)” for “0507282)”
Stock solutions of test compounds are made at a concentration of 10 mM in DMSO, and serially diluted in DMSO to concentrations required for inhibition dose response curves (tested concentration range 30 μM-0.4 nM; […] or 1 μM-0.01 nM).
PGE2 (Cayman 14010, stock solution: […] in DMSO) is used as agonist at 75 nM final concentration, corresponding to EC80.
as §5, with “Five I” for “Five μL”
as §6, §7

[4] = biological target: T4, PTRGER4 (EP4) (Homo sapiens, UniProt P35408); test: hEP4 b-arrestin assay (PathHunter HEK 293 PTGER4 b-arrestin cells); settings: PGE2 20 nM (EC80) as agonist, antagonistic activity, read-out: hEP4 beta-arrestin IC50
T4 construct: host or cells: HEK 293 (PathHunter PTGER4 b-arrestin cell line)
T4 sequence (P35408 whole entry): as the sequence (P35408 whole entry) above
Experimental: as §8, §9
as §10, with “293 PTGER4” for “293 PTGER2”, “(DiscoverX 93-030-4C1)” for “(DiscoverX 93-021-4C1)”, “20 μl” for “20 ul”
as §11
PGE2 (Cayman 14010, stock solution: 100 uM in DMSO) is used as agonist at 20 nM final concentration, corresponding to EC80.
Five microliters of diluted compounds are transferred into the assay plate. Plate is pre-incubated 15 minutes at 37° C. Then five microliters of PGE2 (final conc. 20 nM) are transferred into the assay plate. Plate is incubated 120 minutes at 37° C.
as §12, with “I” for “μL”
as §13, §7

| SMILES | IC50 [1] [nM] | IC50 [2] [nM] | IC50 [3] [nM] | IC50 [4] [nM] |
| --- | --- | --- | --- | --- |
| Cc1cc2ccccc2n1CCNc1cc(-c2ccc(C(=O)O)cc2)ncn1 [Example 1, 4-{6-[2-(2-Methyl-indol-1-yl)-ethylamino]-pyrimidin-4-yl}-benzoic acid] | 5720 | 13 | 15 | 5970 |
| N#Cc1cc2ccccc2n1CCNc1cc(-c2ccc(C(=O)O)cc2)ncn1 [Example 2, 4-{6-[2-(2-Cyano-indol-1-yl)-ethylamino]-pyrimidin-4-yl}-benzoic acid] | 1350 | 11 | 10 | 2060 |
| Cc1cccc2cc(C)n(CCNc3cc(-c4ccc(C(=O)O)cc4)ncn3)c12 [Example 3, 4-{6-[2-(2,7-Dimethyl-indol-1-yl)-ethylamino]-pyrimidin-4-yl}-benzoic acid] | 5660 | 8 | 5 | 11000 |
| O=C(O)c1ccc(-c2cc(NCCn3c(Cl)cc4ccccc43)ncn2)cc1 [Example 4, 4-{6-[2-(2-Chloro-indol-1-yl)-ethylamino]-pyrimidin-4-yl}-benzoic acid] | 2610 | 3 | 2 | 2960 |
| O=C(O)c1ccc(-c2cc(NCCn3c(Br)cc4ccccc43)ncn2)cc1 [Example 5, 4-{6-[2-(2-Bromo-indol-1-yl)-ethylamino]-pyrimidin-4-yl}-benzoic acid] | – | 17 | – | 4970 |
